Assay results published in publication PMC9186412, “Rational Framework for the Design of Trp- and Arg-Rich Peptide Antibiotics Against Multidrug-Resistant Bacteria” (Frontiers in Microbiology, 2022).
Blank lines part the entries; values can stand above or below the compound they belong to. Where no end group is shown, it is not given here.

How the values were obtained:
[1] = tested on: CD-1 mice; assay: Mouse toxicity, maximum tolerated dose (IV); format: in vivo
Description: For all animal experiments, we used the protocol #18071776 approved by the Institutional Animal Care and Use Committee (IACUC) of the University of Pittsburgh, which is consistent with the NIH guide for the care and use of laboratory animals. In a preliminary (pilot) experiment, female CD-1 mice (three per group) weighing about 20 g were injected different doses of peptides up to 45mpk via a lateral tail vein (IV) to determine an MTD (dose that results in no apparent morbidity or mortality). To confirm the MTD determined in the pilot study, CD-1 mice (seven per group) were randomized to receive a dose based on the preliminary MTD (IV) or PBS (100 μL). The animals were monitored for up to 7 days for morbidity and survival.

[2] = tested on: ESKAPE pathogens and Escherichia coli; settings: ESKAPE pathogens and
Description: Bacteria were incubated with each of the indicated peptides in MHB2. […] To assess bactericidal properties of the peptide, the assay was modified by using 15% fetal bovine serum (FBS, for a more physiologically relevant test condition) mixed with 25% MHB2 and 60% PBS. […] Data were analyzed using GraphPad Prism software.

[3] = tested on: human red blood cells (RBCs); settings: at 16 μM; ref de Breij et al., 2018; cited from earlier work

Compound: RRVWRWVRRVWRWVRR [E35]
morbidity and mortality ([1]; 7 CD-1 mice, 30 mpk systemically, monitored up to 7 days): no apparent morbidity and mortality
tolerated systemic dose (maximum tolerated dose, MTD) ([1]; CD-1 mice, tail vein (IV), pilot with doses up to 45 mg/kg): up to 30 mpk
% RBC lysis: 22%

mean MIC [2]: > 10 µM
Compound: CC(C)C[C@H](NC(=O)[C@H](Cc1ccccc1)NC(=O)[C@@H]1CCCN1C(=O)[C@H](Cc1c[nH]c2ccccc12)NC(=O)[C@H](Cc1c[nH]c2ccccc12)NC(=O)[C@H](Cc1c[nH]c2ccccc12)NC(=O)[C@@H]1CCCN1C(=O)[C@H](Cc1ccccc1)NC(=O)[C@H](CCCNC(=N)N)NC(=O)[C@H](CCCNC(=N)N)NC(=O)[C@@H](N)C(C)C)C(=O)N[C@@H](CCCNC(=N)N)C(=O)N[C@@H](CCCNC(=N)N)C(=O)O [tritrpticin]

Compound: Ac-LKRVWKRVFKLLKRYWRQLKKPVR-NH2 [SAAP-148]
RBC lysis [3]: moderate RBC lysis
